According to US20250059205A1, “Heterocyclic Compounds and Methods of Use” (AMGEN INC., priority 2021, published 2025):

Legend:
[1] = test system: Phosphorylation of ERK1/2 in AsPC-1 cells; experiment: Phospho-ERK1/2 MSD Assay (AsPC-1 cells); assay type: cell-based; conditions: Homo sapiens, ASPC1, 2 h, 2 hours treatment, read-out: p-ERK (AsPC-1 cells) IC50
How it was run: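 Read-out: MSD electrochemiluminescent detection of phosphorylated ERK1/2 in whole-cell lysates, fitted to a 4-parameter logistic curve for IC50. Prior to lysis, AsPC-1 cells (25,000 per well) received a 2 h compound dose-response at 37 °C.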

[2] = target: His-tagged KRAS G12D protein (Homo sapiens, UniProt P01116, G12D); experiment: KRAS G12D TR-FRET Assay; assay type: binding
[3] = target: GDP-bound KRAS protein (aa 1-169), containing both G12D and C118A amino acid substitutions (Homo sapiens, UniProt P01116, C118A/G12D); experiment: KRAS G12D Coupled Nucleotide Exchange Assay; assay type: biochemical; conditions: 2 h compound pre-incubation
Experimental: Following compound pre-incubation, purified SOS protein (aa 564-1049) and GTP (Roche 10106399001) were added to the assay wells and incubated for an additional 30 min. […] The assay plates were then read on a PerkinElmer EnVision Multilabel Reader, using AlphaScreen® technology, and data were analyzed using a 4-parameter logistic model to calculate IC50 values.

[4] = test system: Phosphorylation of ERK1/2 in A-427 cells; experiment: Phospho-ERK1/2 MSD Assay (A-427 cells); assay type: cell-based; conditions: Homo sapiens, A-427, 2 h, 2 h treatment, read-out: p-ERK (A427 cells) IC50
How it was run: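 ERK1/2 phosphorylation measured by Meso Scale whole-cell lysate assay after A-427 cells were exposed to a titration of compound for 2 h at 37 °C.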

Sequence of GDP-bound KRAS protein (aa 1-169), containing both G12D and C118A amino acid substitutions (P01116 1-169 isoform P01116-2 G12D/C118A): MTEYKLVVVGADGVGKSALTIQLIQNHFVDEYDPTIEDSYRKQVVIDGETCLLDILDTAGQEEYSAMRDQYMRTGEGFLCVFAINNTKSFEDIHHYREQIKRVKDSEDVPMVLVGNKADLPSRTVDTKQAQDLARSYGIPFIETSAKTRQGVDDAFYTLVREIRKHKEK
Sequence of His-tagged KRAS G12D protein (P01116 1-188 isoform P01116-2 G12D): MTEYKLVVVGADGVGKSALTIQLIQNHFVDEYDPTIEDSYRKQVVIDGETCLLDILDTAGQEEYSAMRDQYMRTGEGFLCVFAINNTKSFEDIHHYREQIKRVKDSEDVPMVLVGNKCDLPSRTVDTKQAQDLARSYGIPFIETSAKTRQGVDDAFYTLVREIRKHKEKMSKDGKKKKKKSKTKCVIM

Row | SMILES | IC50 [1] | IC50 [2] | Avg 2 h Coupled Exchange IC50 [3] | IC50 [4]
1 | CCc1c(F)ccc2cc(O)cc(-c3ccc4c(N5C[C@H]6CC[C@@H](C5)N6)nc(OCC(C)(C)O)nc4c3F)c12 [Example 131, 4-(4-((1R,5S)-3,8-diazabicyclo[3.2.1]octan-3-yl)-8-fluoro-2-(2-hydroxy-2-methylpropoxy)quinazolin-7-yl)-5-ethyl-6-fluoronaphthalen-2-ol] | 926 nM | 9 nM | 5 nM | 682 nM
2 | CCc1c(F)ccc2cc(O)cc(-c3ccc4c(N5C[C@H]6CC[C@@H](C5)N6)nc(OCCC(C)(C)O)nc4c3F)c12 [Example 132, 4-(4-((1R,5S)-3,8-diazabicyclo[3.2.1]octan-3-yl)-8-fluoro-2-(3-hydroxy-3-methylbutoxy)quinazolin-7-yl)-5-ethyl-6-fluoronaphthalen-2-ol] | 1200 nM | 16 nM | 6 nM | 1690 nM
3 | CCc1c(F)ccc2cc(O)cc(-c3ccc4c(N5C[C@H]6CC[C@@H](C5)N6)nc(OCC5(O)CCCC5)nc4c3F)c12 [Example 133, 4-(4-((1R,5S)-3,8-diazabicyclo[3.2.1]octan-3-yl)-8-fluoro-2-((1-hydroxycyclopentyl)methoxy)quinazolin-7-yl)-5-ethyl-6-fluoronaphthalen-2-ol] | 2040 nM | 7 nM | 6 nM | 2430 nM
4 | CCc1c(F)ccc2cc(O)cc(-c3c(Cl)cc4c(N5C[C@H]6CC[C@@H](C5)N6)nc(OC[C@@]56CCCN5C[C@H](F)C6)nc4c3F)c12 [Example 134, 4-(4-((1R,5S)-3,8-diazabicyclo[3.2.1]octan-3-yl)-6-chloro-8-fluoro-2-(((2R,7aS)-2-fluorotetrahydro-1H-pyrrolizin-7a(5H)-yl)methoxy)quinazolin-7-yl)-5-ethyl-6-fluoronaphthalen-2-ol] | 74 nM | 4 nM | 7 nM | 57 nM
5 | CCc1c(F)ccc2cc(O)cc(-c3ccc4c(N5C[C@H]6CC[C@@H](C5)N6)nc(OCC5(O)CCC5)nc4c3F)c12 [Example 135, 4-(4-((1R,5S)-3,8-diazabicyclo[3.2.1]octan-3-yl)-8-fluoro-2-((1-hydroxycyclobutyl)methoxy)quinazolin-7-yl)-5-ethyl-6-fluoronaphthalen-2-ol] | 2270 nM | 10 nM | 9 nM | 2120 nM
6 | CCc1c(F)ccc2cc(O)cc(-c3ccc4c(N5C[C@H]6CC[C@@H](C5)N6)nc(O[C@@H](C)C(C)(C)O)nc4c3F)c12 [Example 136, 4-(4-((1R,5S)-3,8-diazabicyclo[3.2.1]octan-3-yl)-8-fluoro-2-(((S)-3-hydroxy-3-methylbutan-2-yl)oxy)quinazolin-7-yl)-5-ethyl-6-fluoronaphthalen-2-ol] | 4160 nM | 56 nM | 21 nM | 5350 nM
7 | Oc1cc(-c2c(Cl)cc3c(N4C[C@H]5CC[C@@H](C4)N5)nc(OC[C@@]45CCCN4C[C@H](F)C5)nc3c2F)c2c(F)cccc2c1 [Example 137, 4-(4-((1R,5S)-3,8-diazabicyclo[3.2.1]octan-3-yl)-6-chloro-8-fluoro-2-(((2R,7aS)-2-fluorotetrahydro-1H-pyrrolizin-7a(5H)-yl)methoxy)quinazolin-7-yl)-5-fluoronaphthalen-2-ol] | 1710 nM | 37 nM | 34 nM | 411 nM
8 | CCc1c(F)ccc2cc(O)cc(-c3ccc4c(N5C[C@H]6COC[C@@H](C5)N6)nc(OC[C@@]56CCCN5C[C@H](F)C6)nc4c3F)c12 [Example 138, 4-(4-((1R,5S)-3-oxa-7,9-diazabicyclo[3.3.1]nonan-7-yl)-8-fluoro-2-(((2R,7aS)-2-fluorotetrahydro-1H-pyrrolizin-7a(5H)-yl)methoxy)quinazolin-7-yl)-5-ethyl-6-fluoronaphthalen-2-ol] | 216 nM | 3 nM | 4 nM | 72 nM
9 | CCc1c(F)ccc2cc(O)cc(-c3ccc4c(N5C[C@@H]6CC[C@H]5CN6)nc(OC[C@@]56CCCN5C[C@H](F)C6)nc4c3F)c12 [Example 139, 4-(4-((1S,4S)-2,5-diazabicyclo[2.2.2]octan-2-yl)-8-fluoro-2-(((2R,7aS)-2-fluorotetrahydro-1H-pyrrolizin-7a(5H)-yl)methoxy)quinazolin-7-yl)-5-ethyl-6-fluoronaphthalen-2-ol] | 44 nM | 5 nM | 4 nM | 8 nM
10 | Oc1cc(-c2ccc3c(N4C[C@@H]5CC[C@H]4CN5)nc(OC[C@@]45CCCN4C[C@H](F)C5)nc3c2F)c2c(F)c(F)ccc2c1 [Example 140, 4-(4-((1S,4S)-2,5-diazabicyclo[2.2.2]octan-2-yl)-8-fluoro-2-(((2R,7aS)-2-fluorotetrahydro-1H-pyrrolizin-7a(5H)-yl)methoxy)quinazolin-7-yl)-5,6-difluoronaphthalen-2-ol] | 70 nM | 2 nM | 1 nM | 11 nM
11 | Oc1cc(-c2ccc3c(N4C[C@H]5CC[C@@H](C4)N5)nc(OC[C@@]45CCCN4C[C@H](F)C5)nc3c2F)c2c(F)cccc2c1 [Example 141, 4-(4-((1R,5S)-3,8-diazabicyclo[3.2.1]octan-3-yl)-8-fluoro-2-(((2R,7aS)-2-fluorotetrahydro-1H-pyrrolizin-7a(5H)-yl)methoxy)quinazolin-7-yl)-5-fluoronaphthalen-2-ol] | 93 nM | 2 nM | 1 nM | 10 nM
12 | Oc1cc(-c2ccc3c(N4C[C@H]5CC[C@@H](C4)N5)nc(OC[C@@]45CCCN4C[C@H](F)C5)nc3c2F)c2c(F)c(F)ccc2c1 [Example 142, 4-(4-((1R,5S)-3,8-diazabicyclo[3.2.1]octan-3-yl)-8-fluoro-2-(((2R,7aS)-2-fluorotetrahydro-1H-pyrrolizin-7a(5H)-yl)methoxy)quinazolin-7-yl)-5,6-difluoronaphthalen-2-ol] | 19 nM | 2 nM | 2 nM | 6 nM
13 | Oc1cc(Cl)c(C2CC2)c(-c2c(F)cc3c(N4C[C@H]5CC[C@@H](C4)N5)nc(OC[C@@]45CCCN4C[C@H](F)C5)nc3c2F)c1 [Example 144, 3-(4-((1R,5S)-3,8-diazabicyclo[3.2.1]octan-3-yl)-6,8-difluoro-2-(((2R,7aS)-2-fluorotetrahydro-1H-pyrrolizin-7a(5H)-yl)methoxy)quinazolin-7-yl)-5-chloro-4-cyclopropylphenol] | 41 nM | 3 nM | 3 nM | 23 nM
14 | Oc1cc(Cl)c(C2CC2)c(-c2ccc3c(N4C[C@H]5CC[C@@H](C4)N5)nc(OC[C@@]45CCCN4C[C@H](F)C5)nc3c2F)c1 [Example 145, 3-(4-((1R,5S)-3,8-diazabicyclo[3.2.1]octan-3-yl)-8-fluoro-2-(((2R,7aS)-2-fluorotetrahydro-1H-pyrrolizin-7a(5H)-yl)methoxy)quinazolin-7-yl)-5-chloro-4-cyclopropylphenol] | 39 nM | 2 nM | 3 nM | 11 nM
15 | CCc1c(F)ccc2cc(O)cc(-c3ccc4c(N5[C@@H]6CC[C@H]5CNC6)nc(OC[C@@]56CCCN5C[C@H](F)C6)nc4c3F)c12 [Example 146, 4-(4-((1R,5S)-3,8-diazabicyclo[3.2.1]octan-8-yl)-8-fluoro-2-(((2R,7aS)-2-fluorotetrahydro-1H-pyrrolizin-7a(5H)-yl)methoxy)quinazolin-7-yl)-5-ethyl-6-fluoronaphthalen-2-ol] | 129 nM | 1 nM | 3 nM | 83 nM
16 | CCc1cccc2cc(O)cc(-c3c(F)cc4c(N5C[C@H]6CC[C@@H](C5)N6)nc(OC[C@@]56CCCN5C[C@H](F)C6)nc4c3F)c12 [Example 147, 4-(4-((1R,5S)-3,8-diazabicyclo[3.2.1]octan-3-yl)-6,8-difluoro-2-(((2R,7aS)-2-fluorotetrahydro-1H-pyrrolizin-7a(5H)-yl)methoxy)quinazolin-7-yl)-5-ethylnaphthalen-2-ol] | 25 nM | 3 nM | 2 nM | 3 nM
17 | Oc1cc(-c2c(F)cc3c(N4[C@@H]5CC[C@H]4CNC5)nc(OC[C@@]45CCCN4C[C@H](F)C5)nc3c2F)c2c(F)c(F)ccc2c1 [Example 148, 4-(4-((1R,5S)-3,8-diazabicyclo[3.2.1]octan-8-yl)-6,8-difluoro-2-(((2R,7aS)-2-fluorotetrahydro-1H-pyrrolizin-7a(5H)-yl)methoxy)quinazolin-7-yl)-5,6-difluoronaphthalen-2-ol] | 143 nM | 2 nM | 2 nM | 83 nM
18 | Cc1cccc(-c2c(F)cc3c(N4C[C@H]5CC[C@@H](C4)N5)nc(OC[C@@]45CCCN4C[C@H](F)C5)nc3c2F)c1C(F)(F)F [Example 149, 4-((1R,5S)-3,8-diazabicyclo[3.2.1]octan-3-yl)-6,8-difluoro-2-(((2R,7aS)-2-fluorotetrahydro-1H-pyrrolizin-7a(5H)-yl)methoxy)-7-(3-methyl-2-(trifluoromethyl)phenyl)quinazoline] | 680 nM | 5 nM | 2 nM | 939 nM
